For the assay, the target named is human PDE1B enzyme (Homo sapiens (Human), UniProt Q01064). The assay can be described thus: IMAP TR-FRET PDE1B enzymatic assay. The class given is biochemical. Conditions: negative log of half-maximal molar inhibitory concentration, 200 nM FAM-cAMP, values given as bins; for IC50: read-out: PDE1b (pIC50) (converted). Here is the method: PDE1B inhibition was determined by an IMAP TR-FRET assay. The IMAP TR-FRET PDE assay was optimized for concentration of enzyme, Calmodulin, cAMP or cGMP substrate, DMSO tolerance, and incubation time.
Into each well of a solid white 1536 well plate (Corning) was dispensed 250 pg full-length recombinant NH-terminal GST tagged human PDE1B enzyme (BPS Bioscience Cat #60011, San Diego, CA) in 2.5 μL IMAP BSA reaction buffer (Molecular Devices, Sunnyvale, CA) containing 10 U/ml Calmodulin and 2.5 mM CaCl2) (Sigma Aldrich.) After a brief centrifugation, 30 nL of compound was added by transfer from 1 mM stock in DMSO using a Kalypsys 1536 Pintool. Plates were incubated for 5 minutes at room temperature before dispensing 1.5 μL of 533 nM 5-carboxy fluorescein (FAM)-labeled cAMP (Molecular Devices, Sunnyvale, CA) for a final concentration of 200 nM. After a brief centrifugation, the plates were incubated for 30 minutes at room temperature. The assay was terminated by adding 5 μL IMAP binding reagent/Tb complex (Molecular Devices, Sunnyvale, CA) to each well.
Plates were incubated for 1 hour at room temperature and were read on a Viewlux multimode plate reader (Perkin Elmer). The instrument was set to excite using the DUG11 filter and measure using 490/10 nm and 520/10 nm filters. Ratios of acceptor and donor were then calculated.
For IC50 calculations, the values of % efficacy versus a series of compound concentrations were then plotted using non-linear regression analysis of sigmoidal dose-response curves generated with the equation Y=[B+(T−B)]/[1+10((Log EC50−X)×Hill Slope)], where Y=percent activity, B=minimum percent efficacy, T=maximum percent efficacy, X=logarithm of compound and Hill Slope=slope factor or Hill coefficient. The IC50 value was determined by the concentration causing a half-maximal percent efficacy.
(Time-resolved FRET reads energy transfer from a long-lived donor to a nearby acceptor.)

Structures are written as SMILES. Counter-ions that a name gives are not always drawn. Where only a bound is given, the exact number is not on record here.

With `Cc1oc2ncnc(NC3(C)CC3)c2c1C(=O)N1CCc2c(OCCF)ccnc2C1` [Example 20, 5-[4-(2-Fluoroethoxy)-5,6,7,8-tetrahydro-1,7-naphthyridine-7-carbonyl]-6-methyl-N-(1-methylcyclopropyl)furo[2,3-d]pyrimidin-4-amine trifluoroacetate], the “PDE1b (pIC50)” value is recorded as over 8.

With `Cc1oc2ncnc(NC3(C)CC3)c2c1C(=O)N1CCC(c2ccnc(F)c2)C1` (stereo not drawn) [Example 21, 5-[3-(2-Fluoropyridin-4-yl)pyrrolidine-1-carbonyl]-6-methyl-N-(1-methylcyclopropyl)furo[2,3-d]pyrimidin-4-amine], the “PDE1b (pIC50)” value was over 8. As to `Cc1oc2ncnc(NC3(C)CC3)c2c1C(=O)N1CCc2c(nc(C(C)C)[nH]c2=O)C1` [Example 22, 2-Isopropyl-7-(6-methyl-4-((1-methylcyclopropyl)amino)furo[2,3-d]pyrimidine-5-carbonyl)-5,6,7,8-tetrahydropyrido[3,4-d]pyrimidin-4(3H)-one], the IC50 is 0.01 to 0.1 µM. The same measure, in the same setting: to `CCc1ncnc2c1CCN(C(=O)c1c(C)oc3ncnc(NC4(C)CC4)c13)C2` [Example 23, 5-{4-Ethyl-5H,6H,7H,8H-pyrido[3,4-d]pyrimidine-7-carbonyl}-6-methyl-N-(1-methylcyclopropyl)furo[2,3-d]pyrimidin-4-amine] belongs 0.01 to 0.1 µM.

Consider `Cc1oc2ncnc(NC3(C)CC3)c2c1C(=O)N1CCc2c(C#N)ncnc2C1` [Example 24, 7-(6-Methyl-4-((1-methylcyclopropyl)amino)furo[2,3-d]pyrimidine-5-carbonyl)-5,6,7,8-tetrahydropyrido[3,4-d]pyrimidine-4-carbonitrile], for which the IC50 is 0.1 to 1 µM. For `CCOc1ncnc2c1CCN(C(=O)c1c(C)oc3ncnc(NC4(C)CC4)c13)C2` [Example 25, 5-{4-Ethoxy-5H,6H,7H,8H-pyrido[3,4-d]pyrimidine-7-carbonyl}-6-methyl-N-(1-methylcyclopropyl)furo[2,3-d]pyrimidin-4-amine], the “PDE1b (pIC50)” value is listed as over 8.

Turning to `Cc1oc2ncnc(NC3(C)CC3)c2c1C(=O)N1CCC(c2nccc(NCCF)n2)CC1` [Example 26, (4-(4-((2-Fluoroethyl)amino)pyrimidin-2-yl)piperidin-1-yl)(6-methyl-4-((1-methylcyclopropyl)amino)furo[2,3-d]pyrimidin-5-yl)methanone], the “PDE1b (pIC50)” value is listed as over 8. For the compound `COc1nc(C(C)C)nc2c1CCN(C(=O)c1c(C)oc3ncnc(NC4(C)CC4)c13)C2` [Example 27, 5-[4-Methoxy-2-(propan-2-yl)-5H,6H,7H,8H-pyrido[3,4-d]pyrimidine-7-carbonyl]-6-methyl-N-(1-methylcyclopropyl)furo[2,3-d]pyrimidin-4-amine], the “PDE1b (pIC50)” value is over 8.

`COc1cc(CN(C(=O)c2c(C)oc3ncnc(NC4(C)CC4)c23)C2CC2)ncn1` [Example 28, N-Cyclopropyl-N-[(6-methoxypyrimidin-4-yl)methyl]-6-methyl-4-[(1-methylcyclopropyl)amino]furo[2,3-d]pyrimidine-5-carboxamide]: the IC50 was 0.01 to 0.1 µM. Still for that read-out and setting: the figure for `CCc1nc(C2CC2)n2c1CN(C(=O)c1c(C)oc3ncnc(NC4(C)CC4)c13)CC2` [Example 29, 5-{3-Cyclopropyl-1-ethyl-5H,6H,7H,8H-imidazo[1,5-a]pyrazine-7-carbonyl}-6-methyl-N-(1-methylcyclopropyl)furo[2,3-d]pyrimidin-4-amine] is 0.1 to 1 µM. The same measure, in the same setting: the figure for `Cc1oc2ncnc(NC3(C)CC3)c2c1C(=O)N1C[C@@H]2C(c3ccccn3)[C@@H]2C1` (stereo partly drawn) [Example 30, 6-methyl-N-(1-methylcyclopropyl)-5-[(1R,5S,6S)-6-(pyridin-2-yl)-3-azabicyclo[3.1.0]hexane-3-carbonyl]furo[2,3-d]pyrimidin-4-amine] is 0.01 to 0.1 µM; for `Cc1oc2ncnc(NC3(C)CC3)c2c1C(=O)N1CC(c2ccc(F)cn2)C1` [Example 31, 5-[3-(5-Fluoropyridin-2-yl)azetidine-1-carbonyl]-6-methyl-N-(1-methylcyclopropyl)furo[2,3-d]pyrimidin-4-amine] it is 0.01 to 0.1 µM; for `Cc1oc2ncnc(NC3(C)CC3)c2c1C(=O)N1CC(c2ccc(C#N)cc2)C1` [Example 32, 4-(1-{6-Methyl-4-[(1-methylcyclopropyl)amino]furo[2,3-d]pyrimidine-5-carbonyl}azetidin-3-yl)benzonitrile] it is 0.01 to 0.1 µM.

As for `Cc1oc2ncnc(NC3(C)CC3)c2c1C(=O)N1CC(c2nccs2)C1` [Example 33, 6-Methyl-N-(1-methylcyclopropyl)-5-[3-(1,3-thiazol-2-yl)azetidine-1-carbonyl]furo[2,3-d]pyrimidin-4-amine], the IC50 is 0.01 to 0.1 µM.

With `Cc1oc2ncnc(NC3(C)CC3)c2c1C(=O)Nc1ccc(-c2ccoc2)nc1` [Example 34, N-[6-(Furan-3-yl)pyridin-3-yl]-6-methyl-4-[(1-methylcyclopropyl)amino]furo[2,3-d]pyrimidine-5-carboxamide], the IC50 was 0.01 to 0.1 µM. As to `Cc1oc2ncnc(NC3(C)CC3)c2c1C(=O)N1CCN(c2nccs2)CC1` [Example 35, 6-Methyl-N-(1-methylcyclopropyl)-5-[4-(1,3-thiazol-2-yl)piperazine-1-carbonyl]furo[2,3-d]pyrimidin-4-amine], the IC50 was 0.01 to 0.1 µM. On to `Cc1oc2ncnc(NC3(C)CC3)c2c1C(=O)N1Cc2cnc(C(F)(F)F)nc2C1` [Example 36, 6-Methyl-N-(1-methylcyclopropyl)-5-[2-(trifluoromethyl)-5H,6H,7H-pyrrolo[3,4-d]pyrimidine-6-carbonyl]furo[2,3-d]pyrimidin-4-amine], for which the IC50 was 0.1 to 1 µM. For the compound `Cc1oc2ncnc(NC3(C)CC3)c2c1C(=O)N1Cc2cnc(-c3ccc(F)cc3)nc2C1` [Example 37, 5-[2-(4-Fluorophenyl)-5H,6H,7H-pyrrolo[3,4-d]pyrimidine-6-carbonyl]-6-methyl-N-(1-methylcyclopropyl)furo[2,3-d]pyrimidin-4-amine], the IC50 was 0.1 to 1 µM.

As to `Cc1oc2ncnc(NC3(C)CC3)c2c1C(=O)N1CC(c2ncc(C(F)(F)F)cc2F)C1` [Example 38, 5-{3-[3-Fluoro-5-(trifluoromethyl)pyridin-2-yl]azetidine-1-carbonyl}-6-methyl-N-(1-methylcyclopropyl)furo[2,3-d]pyrimidin-4-amine], the IC50 was 0.01 to 0.1 µM. On the same count and under the same terms, to `Cc1ncc2c(n1)CCN(C(=O)c1c(C)oc3ncnc(NC4(C)CC4)c13)C2` [Example 39, 6-Methyl-5-f{2-methyl-5H,6H,7H,8H-pyrido[4,3-d]pyrimidine-6-carbonyl}-N-(1-methylcyclopropyl)furo[2,3-d]pyrimidin-4-amine] belongs 0.01 to 0.1 µM; to `COc1nccc2c1CCN(C(=O)c1c(C)oc3ncnc(NC4(C)CC4)c13)C2` [Example 40, 5-(5-Methoxy-1,2,3,4-tetrahydro-2,6-naphthyridine-2-carbonyl)-6-methyl-N-(1-methylcyclopropyl)furo[2,3-d]pyrimidin-4-amine], 0.01 to 0.1 µM.

In the case of `Cc1oc2ncnc(NC3(C)CC3)c2c1C(=O)N1CCc2nc(C(C)(C)C)ncc2C1` [Example 41, 5-{2-tert-Butyl-5H,6H,7H,8H-pyrido[4,3-d]pyrimidine-6-carbonyl}-6-methyl-N-(1-methylcyclopropyl)furo[2,3-d]pyrimidin-4-amine], the “PDE1b (pIC50)” value was over 8. With `Cc1oc2ncnc(NC3(C)CC3)c2c1C(=O)N1CCN(c2ccccn2)CC1` [Example 42, 6-Methyl-N-(1-methylcyclopropyl)-5-[4-(pyridin-2-yl)piperazine-1-carbonyl]furo[2,3-d]pyrimidin-4-amine], the “PDE1b (pIC50)” value is recorded as over 8. On the same count and under the same terms, the figure for `Cc1oc2ncnc(NC3(C)CC3)c2c1C(=O)N1CCN(c2ccc(F)cn2)CC1` [Example 43, 5-[4-(5-Fluoropyridin-2-yl)piperazine-1-carbonyl]-6-methyl-N-(1-methylcyclopropyl)furo[2,3-d]pyrimidin-4-amine] is over 8; for `Cc1ccc(N2CCN(C(=O)c3c(C)oc4ncnc(NC5(C)CC5)c34)CC2)nc1` [Example 44, 6-Methyl-N-(1-methylcyclopropyl)-5-[4-(5-methylpyridin-2-yl)piperazine-1-carbonyl]furo[2,3-d]pyrimidin-4-amine] it is over 8. With `COc1ncc2c(n1)CCN(C(=O)c1c(C)oc3ncnc(NC4(C)CC4)c13)C2` [Example 45, 5-{2-Methoxy-5H,6H,7H,8H-pyrido[4,3-d]pyrimidine-6-carbonyl}-6-methyl-N-(1-methylcyclopropyl)furo[2,3-d]pyrimidin-4-amine], the IC50 is 0.01 to 0.1 µM. The same measure, in the same setting: the figure for `Cc1oc2ncnc(NC3(C)CC3)c2c1C(=O)Nc1ccc(N2CCOCC2)cn1` [Example 46, 6-Methyl-4-[(1-methylcyclopropyl)amino]-N-[5-(morpholin-4-yl)pyridin-2-yl]furo[2,3-d]pyrimidine-5-carboxamide] is 0.1 to 1 µM.

Values taken from patent US20250145633A1, “SUBSTITUTED FURANOPYRIMIDINE COMPOUNDS AS PDE1 INHIBITORS” (Dart NeuroScience, LLC, priority 2017, published 2025).
